Experimental data reported in paper PMC12675575, “A BRET biosensor for measuring uncompetitive engagement of PRMT5 complexes in cells” (Nature Communications, 2025).
pEC50: −log10 of the molar value. Values joined by “and” are separate entries in the source; they are usually repeats but may differ in a detail not shown here. Identical values can stand only once.

How the values were obtained:
[1] = molecular target: T1, NLuc-PRMT5 co-expressed with WDR77 in HCT116 MTAP wild-type cells (Homo sapiens, UniProt O14744); assay: Live-cell NanoBRET target engagement in HCT116 MTAP wild-type cells (NLuc-PRMT5 + WDR77); format: cell-based; settings: for BRET, CBH-002 + DMSO: Fig 5A, Log([CBH-002]); for normalized BRET, CBH-002 + DMSO (Figure S6C) / normalized BRET, CBH-002 + GSK3326595 (Figure S6C): log([CBH-002])
T1 construct: Horizon Discovery (cells) #PAR-034 and #R02-033 (cells); host or cells: HCT116 MTAP wild-type / MTAP-/-
Experimental: HEK293 cells (ATCC) were cultured in DMEM (Thermo Fisher) + 10% (v/v) FBS (Seredigm), and HCT116 cells (Horizon Discovery, #PAR-034 and #R02-033) were cultured in McCoy’s 5A (Thermo Fisher) + 10% FBS, with incubation in a humidified, 37 °C/5% CO2 incubator. Cells were split 1–3 days prior to performing experiments and used at roughly 80% confluency. […] Cells were transfected according to the manufacturer’s protocol using FuGENE HD (Promega). NanoLuc fusion DNA was diluted into Transfection Carrier DNA (Promega) in Opti-MEM at a ratio of 1:9 (mass/mass), and FuGENE HD was added at a ratio of 1:3 (μg DNA:μL lipid). […] Formed complexes were combined with cells resuspended to a density of 2 × 10^5 cells/mL in Opti-MEM + 1% FBS at a ratio of 1:20 (vol:vol). […] Cells were seeded at a density of 2 × 10^5 cells/mL in Opti-MEM + 1% FBS in 100 μL (96-well). The BRET probe CBH-002 was prepared first as a 100× stock in 100% DMSO (Sigma) and then diluted to a 20× stock in NanoBRET Tracer Dilution buffer (Promega). Test compounds were prepared as 1000× stocks in 100% DMSO and diluted to 10× stocks in Opti-MEM to prepare working stocks. […] NanoBRET Complete 3x Substrate was prepared by combining Nano-Glo Substrate and Extracellular NanoLuc Inhibitor in Opti-MEM, according to the manufacturer’s protocol (Promega).
(§1) EC50 values were obtained by fitting the BRET probe and compound affinity curves to a sigmoidal four-parameter fit model in Graphpad Prism:1 Y=Ymin+Ymax−Ymin/1+10^LogEC50−Xh where h is the Hill Slope.
When normalized BRET was used, mBRET values were normalized using2 NormalizedBRET%=(Y−BRETmin)/BRETmax−BRETmin where y = mBRET in the presence of test compound and BRET probe, BRETmin = mBRET at the highest concentration (saturating) of test compound and BRET probe, and BRETmax = mBRET in the presence of vehicle (DMSO) and BRET probe.
Normalized concentration-response curves showing full competition were fit using a 2-parameter model:3 Y=100/1+10^LogEC50−Xh
In situations where only partial competition was observed, the normalized concentration-response curves were fit using Eq. 1 and where Ymin was constrained to >0.

PRMT5-NL = molecular target: T2, PRMT5-NL (Homo sapiens, UniProt O14744); assay: CBH-002 affinity curve, HEK293, PRMT5-NL fusion with empty carrier DNA (no WDR77); format: cell-based; set-up: unit not given here; settings: Figure S2B NL-PRMT5, log([CBH-002])
T2 construct: host or cells: HEK293
Experimental: HEK293 cells (ATCC) were cultured in DMEM (Thermo Fisher) + 10% (v/v) FBS (Seredigm), and HCT116 cells (Horizon Discovery, #PAR-034 and #R02-033) were cultured in McCoy’s 5A (Thermo Fisher) + 10% FBS, with incubation in a humidified, 37 °C/5% CO2 incubator. Cells were split 1–3 days prior to performing experiments and used at roughly 80% confluency. […] Cells were transfected according to the manufacturer’s protocol using FuGENE HD (Promega). NanoLuc fusion DNA was diluted into Transfection Carrier DNA (Promega) in Opti-MEM at a ratio of 1:9 (mass/mass), and FuGENE HD was added at a ratio of 1:3 (μg DNA:μL lipid). For experiments using WDR77, untagged WDR77 DNA (Promega) was used in place of Carrier DNA. Formed complexes were combined with cells resuspended to a density of 2 × 10^5 cells/mL in Opti-MEM + 1% FBS at a ratio of 1:20 (vol:vol). Cells were plated into a flask and incubated at 37 °C in a humidified 5% CO2 atmosphere for 18–24 h, before being lifted and seeded into 96-well non-binding surface-treated plates (Corning). Cells were seeded at a density of 2 × 10^5 cells/mL in Opti-MEM + 1% FBS in 100 μL (96-well). The BRET probe CBH-002 was prepared first as a 100× stock in 100% DMSO (Sigma) and then diluted to a 20× stock in NanoBRET Tracer Dilution buffer (Promega). Test compounds were prepared as 1000× stocks in 100% DMSO and diluted to 10× stocks in Opti-MEM to prepare working stocks. […] NanoBRET Complete 3x Substrate was prepared by combining Nano-Glo Substrate and Extracellular NanoLuc Inhibitor in Opti-MEM, according to the manufacturer’s protocol (Promega). NanoBRET Complete 3× Substrate was added to cells and plates were measured on either a PheraSTAR FSX equipped with 450 nm (donor) and 610 nm (acceptor) filters, or a GloMAX Discover equipped with 450/8 nm BP (donor) and 600 nm LP (acceptor) filters, using a 0.3 s integration time.
as §1

T2 sequence (O14744 whole entry, the tested form may be a part): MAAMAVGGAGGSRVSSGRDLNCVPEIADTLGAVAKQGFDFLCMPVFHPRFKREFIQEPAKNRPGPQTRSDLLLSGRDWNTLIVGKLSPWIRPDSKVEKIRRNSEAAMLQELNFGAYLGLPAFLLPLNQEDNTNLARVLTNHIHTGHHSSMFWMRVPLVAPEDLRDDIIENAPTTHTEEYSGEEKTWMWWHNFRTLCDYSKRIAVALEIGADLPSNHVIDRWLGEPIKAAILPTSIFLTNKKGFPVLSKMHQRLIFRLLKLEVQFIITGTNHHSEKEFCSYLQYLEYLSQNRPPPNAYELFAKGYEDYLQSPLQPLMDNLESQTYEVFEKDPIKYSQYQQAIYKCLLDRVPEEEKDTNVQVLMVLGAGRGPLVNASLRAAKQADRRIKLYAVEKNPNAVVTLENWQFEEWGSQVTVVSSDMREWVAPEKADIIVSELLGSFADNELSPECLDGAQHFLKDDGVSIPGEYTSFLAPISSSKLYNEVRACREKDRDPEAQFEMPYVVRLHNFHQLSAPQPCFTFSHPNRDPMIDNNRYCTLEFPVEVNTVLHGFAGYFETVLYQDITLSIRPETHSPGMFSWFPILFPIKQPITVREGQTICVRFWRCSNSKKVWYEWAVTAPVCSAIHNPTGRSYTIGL
T1 sequence (O14744 whole entry): as the sequence (O14744 whole entry, the tested form may be a part) above
T1 sequence (Q9BQA1 whole entry partner): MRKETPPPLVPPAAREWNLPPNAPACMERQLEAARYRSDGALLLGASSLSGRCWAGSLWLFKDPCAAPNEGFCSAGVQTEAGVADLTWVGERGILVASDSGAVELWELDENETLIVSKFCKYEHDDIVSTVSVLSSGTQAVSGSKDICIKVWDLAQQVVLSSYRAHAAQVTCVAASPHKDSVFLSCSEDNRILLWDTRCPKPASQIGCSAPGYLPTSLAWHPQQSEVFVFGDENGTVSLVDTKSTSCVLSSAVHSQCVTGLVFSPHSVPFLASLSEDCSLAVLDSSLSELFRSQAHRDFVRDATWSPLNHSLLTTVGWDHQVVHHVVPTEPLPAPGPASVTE

O=C(CCc1ccc2n1[B-](F)(F)[N+]1=C(c3ccc[nH]3)C=CC1=C2)NCCCCC(=O)N1CCC(Nc2cc(C(=O)NC[C@H](O)CN3CCc4ccccc4C3)ncn2)CC1 [CBH-002]
BRET, CBH-002 + DMSO ([1]; uM -0.60): 403 and 799.01 and 758.47
BRET, CBH-002 + DMSO ([1]; uM -0.90): 393 and 766.11 and 738.99
BRET, CBH-002 + DMSO ([1]; uM -1.20): 378 and 710.21 and 697.93
BRET, CBH-002 + DMSO ([1]; uM -1.51): 362 and 618.54 and 616.68
BRET, CBH-002 + DMSO ([1]; uM -1.81): 323
BRET, CBH-002 + DMSO ([1]; uM -2.71): 68.8 and 69.23 and 65.71
pEC50 ([1]; HCT116 wild-type cells, WDR77 co-expression, read-out: CBH-002 apparent affinity (EC50)): 7.92
normalized BRET, CBH-002 + DMSO (Figure S6C) ([1]; uM = -0.60): 100
normalized BRET, CBH-002 + GSK3326595 (Figure S6C) ([1]; uM = -0.60): 12.6717 and 16.8431 and 16.7636
normalized BRET, CBH-002 + DMSO (Figure S6C) ([1]; uM = -0.90): 97.4927 and 95.8339 and 97.4011
normalized BRET, CBH-002 + GSK3326595 (Figure S6C) ([1]; uM = -0.90): 9.237 and 13.3988 and 13.2855
normalized BRET, CBH-002 + DMSO (Figure S6C) ([1]; uM = -1.20): 93.7318 and 88.7552 and 91.9231
normalized BRET, CBH-002 + GSK3326595 (Figure S6C) ([1]; uM = -1.20): 5.8269 and 8.083 and 8.045
normalized BRET, CBH-002 + DMSO (Figure S6C) ([1]; uM = -1.51): 89.7202 and 77.147 and 81.0831
normalized BRET, CBH-002 + GSK3326595 (Figure S6C) ([1]; uM = -1.51): 3.295 and 4.174 and 4.336
normalized BRET, CBH-002 + DMSO (Figure S6C) ([1]; uM = -1.81): 79.9418 and 55.2096 and 56.8522
normalized BRET, CBH-002 + GSK3326595 (Figure S6C) ([1]; uM = -1.81): 1.59 and 1.874 and 2.064
normalized BRET, CBH-002 + DMSO (Figure S6C) ([1]; uM = -2.11): 57.6271 and 32.8998 and 32.0743
normalized BRET, CBH-002 + GSK3326595 (Figure S6C) ([1]; uM = -2.11): 0.7121 and 0.8016 and 0.8965
normalized BRET, CBH-002 + DMSO (Figure S6C) ([1]; uM = -2.41): 31.5515 and 15.8288 and 15.9084
normalized BRET, CBH-002 + GSK3326595 (Figure S6C) ([1]; uM = -2.41): 0.2206 and 0.2381 and 0.3149
normalized BRET, CBH-002 + GSK3326595 (Figure S6C) ([1]; uM = -2.71): 0
BRET, CBH-002 + DMSO (PRMT5-NL; uM -1.03342): 12.5404 and 13.4407 and 13.3166
BRET, CBH-002 + GSK3326595 (PRMT5-NL; uM -1.03342): 8.441 and 8.865 and 8.461
BRET, CBH-002 + DMSO (PRMT5-NL; uM -1.51055): 10.7353 and 11.0633 and 11.2052
BRET, CBH-002 + GSK3326595 (PRMT5-NL; uM -1.51055): 5.349 and 5.866 and 6.032
BRET, CBH-002 + DMSO (PRMT5-NL; uM -1.98767): 8.8779 and 8.604 and 8.921
BRET, CBH-002 + GSK3326595 (PRMT5-NL; uM -1.98767): 5.328 and 5.307 and 5.5055
BRET, CBH-002 + DMSO (PRMT5-NL; uM -2.46479): 7.2471 and 8.258 and 8.573
BRET, CBH-002 + GSK3326595 (PRMT5-NL; uM -2.46479): 3.609 and 3.848 and 3.767
BRET, CBH-002 + DMSO (PRMT5-NL; uM -2.94191): 6.802 and 7.308 and 6.803
BRET, CBH-002 + GSK3326595 (PRMT5-NL; uM -2.94191): 2.864 and 2.956 and 2.6211
BRET, CBH-002 + DMSO (PRMT5-NL; uM -3.41903): 6.051 and 5.88 and 6.095
BRET, CBH-002 + GSK3326595 (PRMT5-NL; uM -3.41903): 2.538 and 2.522 and 2.796
BRET, CBH-002 + DMSO (PRMT5-NL; uM -3.89615): 5.285 and 4.8415 and 5.242
BRET, CBH-002 + GSK3326595 (PRMT5-NL; uM -3.89615): 2.512 and 2.541 and 2.599
